Source: US20220017516A1, “LOX INHIBITORS” (THE INSTITUTE OF CANCER RESEARCH: ROYAL CANCER HOSPITAL, priority 2018, published 2022)
Residue numbers refer to the chain shown, from its start. Read-outs that look alike come from different tables or passages of the source. Values belong to the compound of their own block, whether it stands above or below them.

Assays:
LOXL2 = target: T1, LOXL2 (Homo sapiens, UniProt Q9Y4K0); assay: LOX isoform activity assay (ROS Glo), LOXL2; format: biochemical
T1 construct: purchased R&D Systems/Bio-techne
T1 sequence (Q9Y4K0 26-774): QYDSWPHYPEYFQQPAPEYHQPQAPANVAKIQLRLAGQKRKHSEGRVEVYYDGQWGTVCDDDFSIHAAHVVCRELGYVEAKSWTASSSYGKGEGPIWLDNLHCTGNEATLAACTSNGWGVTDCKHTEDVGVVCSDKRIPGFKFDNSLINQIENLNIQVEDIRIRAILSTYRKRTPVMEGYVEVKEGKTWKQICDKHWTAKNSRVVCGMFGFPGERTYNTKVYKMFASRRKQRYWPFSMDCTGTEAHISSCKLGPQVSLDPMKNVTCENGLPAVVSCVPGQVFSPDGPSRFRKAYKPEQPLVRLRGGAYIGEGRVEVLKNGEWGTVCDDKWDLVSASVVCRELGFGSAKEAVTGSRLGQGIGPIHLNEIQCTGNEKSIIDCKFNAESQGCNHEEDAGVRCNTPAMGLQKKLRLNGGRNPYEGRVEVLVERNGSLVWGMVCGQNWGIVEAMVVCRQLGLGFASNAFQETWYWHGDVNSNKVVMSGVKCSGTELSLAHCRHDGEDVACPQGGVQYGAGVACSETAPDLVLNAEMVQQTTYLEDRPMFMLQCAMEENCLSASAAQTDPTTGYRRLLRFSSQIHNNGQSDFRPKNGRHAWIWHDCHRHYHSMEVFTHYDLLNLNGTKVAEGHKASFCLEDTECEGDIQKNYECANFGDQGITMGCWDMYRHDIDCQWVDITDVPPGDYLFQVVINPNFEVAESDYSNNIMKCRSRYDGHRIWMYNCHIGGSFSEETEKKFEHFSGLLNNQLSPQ
Procedure: (§1) LOX was extracted from pig skin by previously described methods (Shackleton and Hulmes, 1990). LOXL2 and LOXL3 were obtained from R&D Systems/Bio-techne. The Promega ROS Glo assay kit (G8821) was used to assess enzyme activity. Overall, test compound was added to either 384 well assay plates (Greiner) using a Labcyte Echo™ Acoustic Handler or to 96 well plates for a final assay concentration of 100, 30, 10, 3, 1, 0.3, 0.1, 0.03, 0.01 and 0.003 μM final assay concentration. Enzymes were diluted according to specific pre-determined activity in assay buffer (100 mM CHES, pH 9, 0.05% (w/v) pluronic F-127, 0.5% (w/v) BSA, 1 mM MgCl2, 1 M urea, 100 mM NaCl) and added to the plate. For LOXL2, the mixture was incubated for 20 min, 1 h or 20 h; for LOX and LOXL3, incubation time was 1 h. Cadaverine and H2O2 substrate were then added to each well (final assay concentration 19.56 mM and 25 μM respectively) and the plates were incubated for 1.5 h (for LOX) or 1 h (for LOXL2 and LOXL3) at room temperature. Finally, luciferin detection reagent was added and plates were incubated for 20 min at room temperature, protected from light. Luminescence was measured using a BMG LABTECH PHERAstar FS reader and resulting IC50 values were calculated using GraphPad Prism software.
In another setting, LOXL2 enzyme was diluted according to specific pre-determined activity in assay buffer (100 mM CHES, pH 9, 0.05% (w/v) pluronic F-127, 0.5% (w/v) BSA, 1 mM MgCl2, 1 M urea, 100 mM NaCl). Overall, 0.5 μl test compound was added to 40 μl assay buffer+LOXL2 at 100, 30, 10, 3, 1, 0.3, 0.1, 0.03, 0.01 and 0.003 μM (final concentration) in a 96-well white polystyrene, flat bottom plates (Fisher) and incubated for the indicated time at room temperature. 10 μl of assay buffer containing 97.8 mM cadaverine and 125 μM H2O2 substrate (final assay concentration 19.56 mM and 25 μM respectively) were added to each well and plates were incubated for 1 h at room temperature. Finally, 50 μl per well luciferin detection reagent was added and plates were incubated for 20 min at room temperature, protected from light. Luminescence was measured with an integration time of 500 ms per well using a SpectaMax M5 plate reader and resulting IC50 values were calculated using GraphPad Prism software.

LOX [1] = target: T2, LOX (Mus musculus, UniProt P28301); assay: LOX activity in cysts assay (roGFP2 LOX biosensor in MDCK cysts); format: cell-based; settings: LOX; for inhibition at 2.5 µM: read-out: Cyst LOX (% inhibition) @ 2.5 uM
T2 construct: Full length LOX cDNA was then PCR cloned into pEGFP-N1 (Clonetech), or biosensor vector proGFP2—N1; expressed in transfected cells; host or cells: MDCK cells grown as cysts on Matrigel
T2 sequence (P28301 163-411): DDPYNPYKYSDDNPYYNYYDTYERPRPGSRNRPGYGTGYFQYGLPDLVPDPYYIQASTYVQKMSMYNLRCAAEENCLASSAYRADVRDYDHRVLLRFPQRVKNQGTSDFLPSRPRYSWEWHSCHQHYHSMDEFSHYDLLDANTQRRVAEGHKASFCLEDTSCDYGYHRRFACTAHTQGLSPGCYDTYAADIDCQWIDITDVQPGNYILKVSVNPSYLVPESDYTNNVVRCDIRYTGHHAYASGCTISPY
Procedure: All cell lines used in this study were purchased from American Type Culture Collection (ATCC). Mycoplasma contamination was routinely monitored by PCR. Cells used were not found to be Mycoplasma positive. MDCK cell lines were cultured in Dulbecco's Modified Eagle Medium (DMEM) supplemented with 10% fetal bovine serum (FBS) and 1% Penicillin Streptomycin solution (Pen Strep). For GFP constructs transfection in MDCK cells, lipofectamine 3000 was used according to manufactures protocols. Cells were either selected with G418 (Life Technologies) at 5 mg/ml. All cell culture reagents were purchased from Life Technologies.
To produce MDCK cysts, cells were cultured on Matrigel (Corning) with 2% Matrigel supplemented in DMEM with 10% FBS. Cysts were allowed to form for 10 days before subsequent studies.
Mouse LOX cDNA was purchased from OriGene. Full length LOX cDNA was then PCR cloned into pEGFP-N1 (Clonetech), or biosensor vector proGFP2—N1 (Hanson, 2004) using the following primers, […] (forward primer) and […] (reverse primer). For the insertion into pEGFP-N1 or proGFP2—N1, Nhel and Xhol restriction sites were added to forward and reverse primers accordingly. Mutant LOX constructs were made using QuickChange II site-directed mutagenesis kit (Agilent Technologies) following manufacture's protocol using LOX-GFP as template. To generate, roGFP2 versions of LOX mutant constructs, LOX mutant cDNA was transferred from pEGFP-N1 to proGFP2—N1 using Nhel and Xhol.
All photomicrographs were taken with a Leica TCS SP8 X confocal system. For LOX biosensor imaging, live MDCK cysts were used. The oxidised biosensor was excited using a 405 nm laser, while the reduced biosensor was excited with a 488 nm laser. Emission of the biosensor was recorded at 500 nm-530 nm range using sequential scans. Ratio images were generated following a published protocol {Kardash, 2011 #376}. Note, while the published protocol generates YFP/CFP ratio images, we used it to generate Oxidised/Reduced (roGFP2 ratio) ratio images. The roGFP2 ratio at the basal surface of MDCK cysts was used to indicate LOX inhibition. LOX inhibitors were added 30 min prior to imaging.
For clarity, readout for DMSO treated cysts represents 0% inhibition (no inhibition) and readout for BAPN at 1 mM is used as 100% inhibition (full inhibition).

LOX [2] = target: T3, LOX (Sus scrofa, UniProt P45845); assay: LOX isoform activity assay (ROS Glo), LOX; format: biochemical, pig; settings: 1 h incubation with enzyme
T3 construct: LOX was extracted from pig skin by previously described methods; from tissue; host or cells: pig skin
T3 sequence (P45845 1-249): T2 sequence (P28301 163-411) with D20X, T21X, Y22X, N31Y, S80T, N142S, A188N, Q202K, T224S, D231E
Procedure: as §1

[3] = target: T4, monoamine oxidase B (MAO-B) (Homo sapiens, UniProt P27338); assay: Amine oxidase activity assay (MAO-Glo), MAO-B; format: biochemical
T4 construct: purchased Sigma M7441
T4 sequence (P27338 1-520): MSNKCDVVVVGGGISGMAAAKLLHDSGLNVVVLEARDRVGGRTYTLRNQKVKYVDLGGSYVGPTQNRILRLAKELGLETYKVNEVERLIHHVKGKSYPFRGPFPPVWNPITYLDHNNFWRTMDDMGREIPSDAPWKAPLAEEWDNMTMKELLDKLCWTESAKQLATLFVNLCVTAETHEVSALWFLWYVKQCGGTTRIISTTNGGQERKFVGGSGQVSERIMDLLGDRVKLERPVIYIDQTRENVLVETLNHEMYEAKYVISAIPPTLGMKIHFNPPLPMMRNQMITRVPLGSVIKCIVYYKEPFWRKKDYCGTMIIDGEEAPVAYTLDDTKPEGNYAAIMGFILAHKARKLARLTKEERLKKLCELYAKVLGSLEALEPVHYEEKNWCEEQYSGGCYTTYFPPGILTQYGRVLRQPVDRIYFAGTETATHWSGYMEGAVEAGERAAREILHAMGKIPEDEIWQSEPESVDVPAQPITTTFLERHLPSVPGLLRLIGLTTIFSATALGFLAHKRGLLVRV
Procedure: (§2) The Promega MAO-Glo assay kit (V1402) was used to assess monoamine oxidase A (MAO-A) and monoamine oxidase B (MAO-B) activity. MAO substrate was prepared at 80 μM with the specific MAO-A/B reaction buffer. Overall, 0.5 μl test compound was added to 25 μl MAO substrate at 100, 30, 10, 3, 1, 0.3, 0.1, 0.03, 0.01 and 0.003 μM (final concentration) in a 96-well white, flat bottom plate. Overall, 25 μl of 1:520 dilution of MAO-A enzyme (Promega, V1452) or 25 μl of 1:52 dilution of MAO-B enzyme (Sigma, M7441) in specific MAO-A/B reaction buffer was added to each well (enzyme prepared at 2×final concentration) and plates were incubated for 1 h at room temperature. Finally, 50 μl per well luciferin detection reagent was added and plates were incubated for 20 min at room temperature, protected from light. Luminescence was measured with an integration time of 500 ms per well using a SpectaMax M5 plate reader and resulting IC50 values were calculated using GraphPad Prism software.
(§3) In another setting, the DAO and MAO assays were performed in 384-well plates (Greiner) and test compound was added using a Labcyte Echo™ Acoustic Handler for the same final concentrations as in the 96-well setting. Luminescence was measured with BMG LABTECH PHERAstar FS plate reader.

[4] = target: T5, monoamine oxidase A (MAO-A) (Homo sapiens, UniProt P21397); assay: Amine oxidase activity assay (MAO-Glo), MAO-A; format: biochemical
T5 construct: purchased Promega V1452
T5 sequence (P21397 1-527): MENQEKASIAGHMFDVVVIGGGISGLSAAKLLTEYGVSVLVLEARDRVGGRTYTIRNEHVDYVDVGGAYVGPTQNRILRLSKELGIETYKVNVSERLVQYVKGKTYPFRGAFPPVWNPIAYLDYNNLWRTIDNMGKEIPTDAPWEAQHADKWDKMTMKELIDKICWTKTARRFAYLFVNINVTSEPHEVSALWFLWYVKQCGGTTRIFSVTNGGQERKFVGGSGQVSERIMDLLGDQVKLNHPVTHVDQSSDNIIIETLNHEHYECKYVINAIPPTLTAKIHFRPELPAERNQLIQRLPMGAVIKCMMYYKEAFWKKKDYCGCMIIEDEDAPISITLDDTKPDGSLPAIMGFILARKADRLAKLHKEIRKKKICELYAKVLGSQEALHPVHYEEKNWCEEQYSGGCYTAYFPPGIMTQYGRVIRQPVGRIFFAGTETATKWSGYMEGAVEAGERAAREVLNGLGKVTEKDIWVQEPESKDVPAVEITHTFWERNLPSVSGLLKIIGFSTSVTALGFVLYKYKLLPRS
Procedure: as §2, §3

[5] = 20 hr incubation with enzyme; read-out: LOXL2 IC50 c) 20 hr

- IC50 (LOXL2; [5]): 140 nM
- inhibition at 2.5 µM (LOX [1]; 2.5 uM (stated in cell), DMSO = 0%, BAPN 1 mM = 100% inhibition): 73%
Compound: CCOc1ccc(N2C[C@@H]3C[C@H]2CN3C(=O)C(F)S(=O)(=O)CCN)cc1 (mixture of isomers) [Example 16, 2-((2-aminoethyl)-sulfonyl)-1-((1S,4S)-5-(4-ethoxyphenyl)-2,5-diazabicyclo-[2.2.1]heptan-2-yl)-2-fluoroethan-1-one]

Compound: CCOc1ccc(N2C[C@H]3CN(C(=O)C(F)S(=O)(=O)CCN)C[C@@H]2C(C)(C)C3)cc1 (stereo partly drawn) [Example 15, 2-((2-aminoethyl)sulfonyl)-1-((1 S,5S)-6-(4-ethoxyphenyl)-9,9-dimethyl-3,6-diazabicyclo[3.2.2]nonan-3-yl)-2-fluoroethan-1-one]
- IC50 (LOXL2; [5]): 120 nM
- IC50 (LOX [2]): 2.2 µM
- inhibition at 2.5 µM (LOX [1]): 78%

Compound: CCOc1ccc(N2C[C@H]3CN(C(=O)c4cccc(S(=O)(=O)CCN)c4)C[C@@H]2C(C)(C)C3)cc1 [Example 32, (3-((2-aminoethyl)sulfonyl)phenyl)((1S,5S)-6-(4-ethoxyphenyl)-9,9-dimethyl-3,6-diazabicyclo[3.2.2]nonan-3-yl)methanone]
- IC50 [3]: > 100 µM
- IC50 (LOXL2; [5]): 3000 nM
- IC50 [4]: > 100 µM
- IC50 (LOX [2]): 23 µM

Compound: CCOc1ccc(N2C[C@H]3CN(C(=O)C(CC(C)C)S(=O)(=O)CCN)C[C@@H]2C(C)(C)C3)cc1 (stereo partly drawn) [Example 40, 2-((2-aminoethyl)sulfonyl)-1-((1S,5S)-6-(4-ethoxyphenyl)-9,9-dimethyl-3,6-diazabicyclo[3.2.2]nonan-3-yl)-4-methylpentan-1-one]
- IC50 (LOXL2; 1 hr incubation with enzyme; read-out: LOXL2 IC50 b) 1 hr): 1100 nM
- inhibition at 10 µM (LOX [1]; 10 uM, DMSO = 0%, BAPN 1 mM = 100% inhibition, inhibitor added 30 min prior to imaging, read-out: Cyst LOX @ 10 uM (% inhibition)): 79%
